Test system: C3H 10T1/2 cells
Assay: Apoptosis assay with C3H 10T1/2 cells (serum deprivation)
Format: cell-based
Settings: for ACTIVITY (anti-apoptotic activity of known phospholipids): serum-deprived 10T½ cells, dissolved at 10 mM (100× test concentration), pre-incubation in 1% BSA, final BSA ≦0.01%
Protocol: In order to determine the apoptotic activity of the PAIs, the following experiment was performed. […] Exponential growth phase was assured by seeding at 2000 cells per 1 ml (5 ml for a 60 mm culture plate) five days prior to the beginning of the experiment. At T=0, cultures were transferred to serum-free medium, as an apoptosis stimulus, and seed extracts were added. Controls included 10^−7 M 12-O-tetradecanoyl phorbol-13-acetate (TPA) to ensure the responsiveness of the cell culture. The PAI samples prepared by extraction with ethanol and by gel filtration were added to serum free medium at 0.1 g dry weight equivalents and sterile filtered prior to addition to the cultures. Assays were performed in triplicate or quadruplicate. Analyses of the cell responses were made after between 22 and 28 hours of serum deprivation and/or treatment with soy flour derived PAIs. Two assays were performed on each cell culture plate consisting of differential cell counts.
1. All non-adherent or loosely adherent cells were removed from the culture dish and counted by appropriate techniques, typically counting by electric particle counting instrument. These are the apoptotic cells, the serum deprived released cells (SDR), released by the action of cultivation in serum-free medium.
2. The remaining adherent cells (ADH) are exposed to a buffered, typically pH 7.3, balanced salt solution such as Hanks Balanced Salt Solution without calcium and magnesium salts containing 0.05% trypsin and 0.53 mM ethylenediaminetetraacetic acid (EDTA). Each culture is incubated at either room temperature or 37° C. on a rocking platform to ensure uniform distribution of the trypsin reagent over the culture surface. After a standardized period of time, typically 10 minutes, the released cells are removed from each culture dish and measured by the same means as described above, typically electronic particle counting.
All commercial samples were dissolved at a concentration of 10 mM (100× test concentration) in 1% bovine serum albumin (BSA), 0.5 mM calcium chloride, 0.5 mM magnesium chloride, at room temperature. All compounds were tested after pre-incubation in 1% BSA. The final concentration of BSA in the apoptosis was ≦0.01%. […] All tested compounds were obtained from Sigma. The BSA was obtained from Boehringer Mannheim.

Q: Which “Anti-apoptotic activity (in words)” value (in the presence of Bowman-Birk inhibitors) does the source give for CCCCCCCC/C=C\CCCCCCCC(=O)OC[C@@H](O)COP(=O)(O)O (stereo in doubt) [L-a-lysophosphatidic acid, oleoyl (C18:1, [cis]-9)] here?
A: does not confer anti-apoptotic activity

Q: What about the “Anti-apoptotic activity (in words)” value (in the presence of a protein or proteins to which it specifically binds (serum albumin)) of the same compound?
A: possess anti-apoptotic activity

Q: And the “Anti-apoptotic activity (in words)” value (in the presence of fraction B)?
A: possessed anti-apoptotic activity

Q: What about the “Effect of pre-incubation on anti-apoptotic activity” value (pre-incubation with BSA (FIG. 14)) of the same compound?
A: enhanced

Q: And the “Effect of pre-incubation on anti-apoptotic activity” value (pre-incubation with fraction B (FIG. 14))?
A: enhanced

Q: What about the “ACTIVITY (anti-apoptotic activity of known phospholipids)” value of the same compound?
A: ++

Q: And the “Anti-apoptotic activity (in words)” value (substance or fraction alone)?
A: no anti-apoptotic activity

Q: For CCCCCCCC/C=C\CCCCCCCC(=O)OC[C@H](COP(=O)(O)O)OC(=O)CCCCCCC/C=C\CCCCCCCC (stereo in doubt) [L-a-phosphatidic acid, dioleoyl (C18:1, [cis]-9)], which “ACTIVITY (anti-apoptotic activity of known phospholipids)” value is on record?
A: 0

Q: For L-a-lysophosphatidyl ethanolamine, which “ACTIVITY (anti-apoptotic activity of known phospholipids)” value is on record?
A: 0

Q: With “L-a-phosphatidyl choline [L-a-phosphatidyl choline Type V-EA]” as the compound, how does the “ACTIVITY (anti-apoptotic activity of known phospholipids)” value read?
A: 0

Q: How did the “ACTIVITY (anti-apoptotic activity of known phospholipids)” value turn out when “L-a-phosphatidyl ethanolamine [L-a-phosphatidyl ethanolamine, Type IV]” was run?
A: 0

Q: L-a-phosphatidyl inositol was tested. Which “ACTIVITY (anti-apoptotic activity of known phospholipids)” value did it give?
A: 0

Source: US6656729B2, “Compositions which inhibit apoptosis, methods of purifying the compositions and uses thereof” (Sky High, LLC, priority 1993, dated 2003)
